# Experimental data published in patent US6521633B2, “Treating NIDDM with RXR agonists” (Ligand Pharmaceuticals Incorporated, priority 1995, dated 2003).
# Experiments:
# [1] = system: 3T3-LI cells; assay: Oil red O staining of differentiating 3T3-LI adipocytes; format: cell-based, mouse; conditions: for Percent of Differentiated Cells: 3T3-L1, BRL 49653 and LG 100268 at 1 μM; for Percent of Differentiated Cells / cells induced to differentiate into adipocytes: insulin at 0.01 mg/ml; for cells induced to differentiate into adipocytes: BRL 49653 and retinoid at 1 μM
# Text: They are contact inhibited and can be induced to differentiate into adipocyte cells containing large lipid droplets within the cytoplasm. Adipocyte differentiation can be observed by oil red O staining which stains the lipid droplets within the cytoplasm red. The extent of adipocyte differentiation can then be monitored by microscope observation.
# [2] = system: C3H/10T1/2 cells; assay: Oil red O staining of C3H/10T1/2 cells; format: cell-based, mouse; conditions: for Experiment B (+BRL + Insulin) % differentiated cells / Experiment A (+BRL) % differentiated cells: 7 days; for effect on differentiation induced by BRL 49653 or BRL/insulin: in combination with BRL 49653
# [3] = system: 3T3-LI cells; assay: 96-well plate triglyceride accumulation assay in differentiating adipocytes; format: cell-based, mouse; conditions: for triglyceride accumulation: retinoids and BRL 49653 at 1 μM, insulin at 0.01 mg/ml, alone or all together; for triglyceride accumulation on addition of retinoid with BRL 49653: retinoid 1 μM with BRL 49653 1 μM
# Text: For a more quantitative assay and rapid screening of compounds, a 96-well plate assay was developed to quantitate the amount of triglyceride produced by the differentiating adipocytes. […] The level of triglyceride accumulation can then be measured via an enzymatic color reaction which can be read in a plate reader. The retinoid modulation of lipid formation was quantitated by monitoring triglyceride formation.
# [4] = system: 3T3-L1 cells; assay: Insulin stimulated labeled 2-deoxyglucose uptake assay; format: cell-based, mouse; conditions: 3T3-L1 treated 10 days; BRL 49653 or LG 100268 (1 μM); insulin 0.01 mg/ml for 5 days; normalized to total cellular protein
# Protocol: A fourth indicator for the utility of a compound in treating NIDDM or insulin-resistant diabetes is the compound's, ability to enhance insulin-stimulated glucose uptake. Labeled 2-deoxyglucose (2-DOG, a glucose analog) assay was performed with a preadipocyte cell line in the presence of insulin and a candidate compound to measure the level of 2-DOG incorporation.
# A murine preadipocyte cell line, 3T3-L1, is widely used to study glucose uptake, adipogenesis, and has been used in the characterization of thiazolidinediones and other PPARγ activators.
# Insulin was added to the cells at a concentration of 0.01 mg/ml for 5 days, thereafter no insulin was added. […] The level of incorporated labeled 2-DOG was normalized to the amount of total cellular protein.
# [5] = system: db/db mice; assay: In vivo experiment with db/db mice; conditions: for increase of HDL-cholesterol levels in comparison to controls: BRL 49653, or combination, terminal serum, precipitation method; for lowering of the level of glucose in comparison to control: BRL 49653 1 mg/kg, LG 100268 20 mg/kg, or combination
# Protocol: Animals: Strain Diabetic C57BLKS/Jm+/+db, 82 mice
# Mice were identified by an ear punch code (#1-82) and separated into 8 groups (A-H). Each group consisted of 10 mice separated into 4 cages with 2-3 mice/cage. […] Control group C consisted of 12 mice. […] Food and water were provided ad libitum. Food intake/cage was measured over selected periods and expressed as g food consumed/100 g mouse/day.
# (§1) On days of study, food was removed from the cages at selected intervals of time between 6:15 and 7:00 AM. Animal weights were recorded 2 h after start of fast and blood samples taken after a 3 h fast. Blood was drawn from a cut at the tip of the tail and collected into a heparinized capillary tube (approx. 75 μl volume). After centrifugation, the hematocrit was read in a microcapillary reader, recorded and the tube broken for recovery of plasma for analysis of glucose, triglyceride and insulin concentration.
# Blood samples were collected on days 0−1,0, 3, 7, 10, and on the final day of study, days 13-15. […] The various solutions were gavaged daily to their respective groups based on the animals weight taken that morning or the weight of the animal taken on the preceding day of weighing. To assess alterations in plasma FFA, on day 10 an addition 75 μl blood sample was collected into an EDTA-coated capillary tube immediately after collecting the basal heparinized capillary tube sample.
# On the final day of study, mice were not gavaged with test solution. The last gavage was administered on the day preceding the final day, i.e., day 12 for animals terminated on day 13, day 13 for animals terminated on day 14 and day 14 for animals terminated on day 15. Terminal blood was collected by decapitation to provide serum for assessment of HDL.
# [6] = system: ob/ob mice; assay: In vivo experiment with ob/ob mice; conditions: mouse
# Protocol: Each group consisting of 10 mice.
# as §1
# Blood samples were collected on days 0−3, 0, 3, 6, 8, 10, 14±1 and final collections were made on days 15, 16 or 17. FFA samples were collected on day 10 by drawing a second 75 μl blood sample in a non-heparinized tube coated with EDTA. This tube was collected immediately after the heparinized tube collection.
# Animals in groups H were administered control gavage solution (0.6 ml/42 g) daily commencing on day 0 and ending on the day preceding the final day. 11 test solutions were administered to animals in groups designated A-G, I-L. All gavage solutions were administered after refeeding on days in which mice were fasted for blood sampling.
# [7] = system: LPL (lipoprotein lipase) mRNA and PPARγ mRNA; assay: Northern blot analysis of adipocyte specific genes in 3T3-LI cells; format: cell-based, mouse; conditions: 3T3-LI treated for 7 days; BRL 49653 1 μM, LG 100268 1 μM, insulin 0.01 mg/ml
# Protocol: A third measure of adipocyte differentiation is to examine regulation of gene expression. […] Northern blot analysis was used to dissect the molecular aspects of how retinoids effect target genes of differentiating adipocytes. PPARγ, lipoprotein lipase (LPL), and β-actin (loading control) mRNA levels were monitored after cells were treated with thiazolidinediones and retinoids.
# Adipocyte specific genes were monitored via northern blot analysis.
# [8] = BRL 0.1 μM + insulin 0.01 mg/ml, alone or plus ALRT 1057 1 μM or LGD 1069 1 μM
# [9] = BRL 0.1 μM alone or plus ALRT 1057 1 μM, LGD 1069 1 μM or TTNPB 10 nM
# [10] = BRL 10 μM + insulin 0.01 mg/ml, alone or plus ALRT 1057 1 μM, LGD 1069 1 μM or TTNPB 10 nM
# [11] = BRL 10 μM alone or plus ALRT 1057 1 μM, LGD 1069 1 μM or TTNPB 10 nM
# [12] = middle group r17-r20, headed BRL (0.1 μM), + insulin 0.01 mg/ml, alone or plus ALRT 1057 1 μM, LGD 1069 1 μM or TTNPB 10 nM
# [13] = middle group r17-r20, headed BRL (0.1 μM), alone or plus ALRT 1057 1 μM, LGD 1069 1 μM or TTNPB 10 nM
Molecule,amount of adipocyte differentiation when used in combination with BRL 49653 ([1]; 3T3-LI),"Experiment B (+BRL + Insulin) % differentiated cells [2, 8] [%]","Experiment A (+BRL) % differentiated cells [2, 9] [%]","Experiment B (+BRL + Insulin) % differentiated cells [2, 10] [%]","Experiment A (+BRL) % differentiated cells [2, 11] [%]",effect on differentiation induced by BRL 49653 or BRL/insulin [2],"Experiment B (+BRL + Insulin) % differentiated cells [2, 12] [%]","Experiment A (+BRL) % differentiated cells [2, 13] [%]",Percent of Differentiated Cells [1] [%],cells induced to differentiate into adipocytes ([1]; 3T3-LI) [%],triglyceride accumulation [3],increase in 2-DOG uptake [4],increase of HDL-cholesterol levels in comparison to controls ([5]; LG 100268 20 mg/kg),"lowering of the level of glucose in comparison to control ([5]; daily gavage, by day 15) [%]","lipid droplets within the cytoplasm ([1]; 3T3-LI, LG 100268 at 1 μM)",triglyceride accumulation on addition of retinoid with BRL 49653 [3],"lowering of the level of triglycerides ([5]; daily gavage, LG 100268 20 mg/kg, BRL 49653 1 mg/kg, or combination, by day 15) [%]",lowering of the level of glucose in comparison to control [6] [%],"LPL and PPARγ mRNA levels, relative signal normalized to β-actin [7]"
"CC1=C(/C=C/C(C)=C\C=C\C(C)=C\C(=O)O)C(C)(C)CCC1 [ALRT 1057, 9-cis retinoic acid]",increased the amount of differentiation,65,45,99,80,large increase in the amount of differentiation,90,65,,,,,,,,,,,
"CN(CCOc1ccc(CC2SC(=O)NC2=O)cc1)c1ccccn1 (stereo not shown) [BRL 49653, 5-[[4-[2-(methyl-2-pyridinylamino)ethoxy]phenyl]methyl]-2,4-thiazolidinedione, reference compound]",,,,,,,,,50,50,induced some triglyceride accumulation,About 5 fold,equivalent level of increase,40,,,,,
"Cc1cc2c(cc1C1(c3ccc(C(=O)O)cn3)CC1)C(C)(C)CCC2(C)C [LG 100268, 2-[1-(3,5,5,8,8-pentamethyl-5,6,7,8-tetrahydro-2-naphthyl)-cyclopropyl]-pyridine-5-carboxylic acid]",increased dramatically,,,,,,,,50,50,largest response,About 2 fold,20%,40,bigger redder lipid droplets,increased the amount of triglyceride accumulation,46,~50,
C=C(c1ccc(C(=O)O)cc1)c1cc2c(cc1C)C(C)(C)CCC2(C)C [LGD 1069],increased the amount of differentiation,90,45,99,80,large increase in the amount of differentiation,90,65,,,,,,,,increased the amount of triglyceride accumulation,,,
"C/C(=C\c1ccc(C(=O)O)cc1)c1ccc2c(c1)C(C)(C)CCC2(C)C [TTNPB, reference compound]",,,0.2,50,5,inhibited the differentiation,30,2,,,,,,,,,,,
"Insulin: insulin, used at 0.01 mg/ml",,,,,,,,,20,,induced some triglyceride accumulation,,,,,,,,three to five fold increase
